Test results: the supplement of paper PMC10307832

Assays:
Assay in all cases: relative viability (nuclei count vs DMSO), 5 days (fraction); higher = more cells survive
Bleomycin + Decitabine = compound: CC1=C(N=C(N=C1N)[C@H](CC(=O)N)NC[C@@H](C(=O)N)N)C(=O)N[C@@H]([C@H](C2=CN=CN2)OC3C(C(C(C(O3)CO)O)O)OC4C(C(C(C(O4)CO)O)OC(=O)N)O)C(=O)N[C@H](C)[C@H]([C@H](C)C(=O)N[C@@H]([C@@H](C)O)C(=O)NCCC5=NC(=CS5)C6=NC(=CS6)C(=O)NCCC[S+](C)C)O [Bleomycin] + Nc1ncn([C@H]2C[C@H](O)[C@@H](CO)O2)c(=O)n1 [Decitabine] (partner 2 µM); conditions: main component drawn
In short: (§1)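 Lung cancer cell lines in 1536-well plates got either a single drug or a fixed anchor-drug dose together with five library-drug doses (not always all listed) in √10 steps, by pin tool, on the day after seeding. Nuclei were counted after 5 days, and relative viability is the treated-to-vehicle ratio of nuclei counts. Values are medians of duplicate plates.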

Etoposide + Tozasertib = compound: COc1cc([C@@H]2c3cc4c(cc3[C@@H](O[C@@H]3O[C@@H]5CO[C@@H](C)O[C@H]5[C@H](O)[C@H]3O)[C@H]3COC(=O)[C@H]23)OCO4)cc(OC)c1O [Etoposide] + Cc1cc(Nc2cc(N3CCN(C)CC3)nc(Sc3ccc(NC(=O)C4CC4)cc3)n2)n[nH]1 [Tozasertib] (partner 0.1 µM)
In short: as §1

Etoposide + Vorinostat = compound: COc1cc([C@@H]2c3cc4c(cc3[C@@H](O[C@@H]3O[C@@H]5CO[C@@H](C)O[C@H]5[C@H](O)[C@H]3O)[C@H]3COC(=O)[C@H]23)OCO4)cc(OC)c1O [Etoposide] + O=C(CCCCCCC(=O)Nc1ccccc1)NO [Vorinostat] (partner 1 µM)
In short: as §1

Bleomycin + Crizotinib = compound: CC1=C(N=C(N=C1N)[C@H](CC(=O)N)NC[C@@H](C(=O)N)N)C(=O)N[C@@H]([C@H](C2=CN=CN2)OC3C(C(C(C(O3)CO)O)O)OC4C(C(C(C(O4)CO)O)OC(=O)N)O)C(=O)N[C@H](C)[C@H]([C@H](C)C(=O)N[C@@H]([C@@H](C)O)C(=O)NCCC5=NC(=CS5)C6=NC(=CS6)C(=O)NCCC[S+](C)C)O [Bleomycin] + C[C@@H](Oc1cc(-c2cnn(C3CCNCC3)c2)cnc1N)c1c(Cl)ccc(F)c1Cl [Crizotinib] (partner 1 µM); conditions: main component drawn
In short: as §1

Row | Cell Line | relative viability (Bleomycin + Decitabine; first compound 0.01 µM) | relative viability (Bleomycin + Decitabine; first compound 0.03162 µM) | relative viability (Bleomycin + Decitabine; first compound 0.1 µM) | relative viability (Bleomycin + Decitabine; first compound 0.3162 µM) | relative viability (Bleomycin + Decitabine; first compound 1 µM) | relative viability (Etoposide + Tozasertib; first compound 0.01 µM) | relative viability (Etoposide + Tozasertib; first compound 0.03162 µM) | relative viability (Etoposide + Tozasertib; first compound 0.1 µM) | relative viability (Etoposide + Tozasertib; first compound 0.3162 µM) | relative viability (Etoposide + Tozasertib; first compound 1 µM) | relative viability (Etoposide + Vorinostat; first compound 0.01 µM) | relative viability (Etoposide + Vorinostat; first compound 0.03162 µM) | relative viability (Etoposide + Vorinostat; first compound 0.1 µM) | relative viability (Etoposide + Vorinostat; first compound 0.3162 µM) | relative viability (Etoposide + Vorinostat; first compound 1 µM) | relative viability (Bleomycin + Crizotinib; first compound 0.01 µM) | relative viability (Bleomycin + Crizotinib; first compound 0.03162 µM) | relative viability (Bleomycin + Crizotinib; first compound 0.1 µM) | relative viability (Bleomycin + Crizotinib; first compound 0.3162 µM) | relative viability (Bleomycin + Crizotinib; first compound 1 µM)
1 | HCC-44 | 0.773 | 0.795 | 0.693 | 0.396 | 0.407 | 0.759 | 0.886 | 1.11 | 0.57 | 0.317 | 1.12 | 1.04 | 1.21 | 1.02 | 0.727 | 0.484 | 0.256 | 0.223 | 0.152 | 0.138
2 | HCC-827 | 0.304 |  | 0.287 | 0.249 | 0.198 | 0.388 | 0.453 | 0.433 | 0.192 | 0.173 | 0.917 | 0.972 | 0.746 | 0.605 | 0.181 | 0.872 | 0.95 | 0.831 | 0.635 | 0.274
3 | NCI-H1623 |  |  |  |  |  | 0.416 | 0.392 | 0.349 | 0.396 | 0.259 |  |  |  |  |  |  |  |  |  | 
4 | NCI-H2405 | 0.648 | 0.655 | 0.61 | 0.433 | 0.309 | 0.745 | 0.77 | 0.86 | 0.576 | 0.294 | 1.11 | 1.12 | 0.765 | 0.742 | 0.27 | 0.695 | 0.8 | 0.713 | 0.45 | 0.372
5 | PC-3 [JPC-3] | 0.806 | 0.69 | 0.704 | 0.621 | 0.547 | 0.841 | 0.882 | 0.928 | 0.853 | 0.707 | 0.796 | 1.09 | 0.69 | 0.694 | 0.518 | 0.811 | 1 | 0.872 | 0.689 | 0.485
6 | NCI-H1651 | 0.619 | 0.461 | 0.477 | 0.333 | 0.192 | 0.675 | 0.692 | 0.547 | 0.159 | 0.156 | 0.602 | 0.65 | 0.399 | 0.387 | 0.189 | 0.787 | 0.772 | 0.754 | 0.448 | 0.358
7 | HARA | 0.513 | 0.534 | 0.473 | 0.313 | 0.335 | 0.149 | 0.112 | 0.127 | 0.0757 | 0.0743 | 0.443 | 0.573 | 0.586 | 0.125 | 0.095 | 0.938 | 0.952 | 0.974 | 0.54 | 0.36
8 | NCI-H1650 | 0.295 | 0.253 | 0.163 | 0.184 | 0.146 | 0.381 | 0.356 | 0.337 | 0.197 | 0.208 | 0.428 | 0.518 | 0.518 | 0.229 | 0.219 | 0.397 | 0.311 | 0.258 | 0.16 | 0.172
9 | NCI-H1395 | 0.563 | 0.593 | 0.513 | 0.394 | 0.305 | 0.616 | 0.758 | 0.665 | 0.74 | 0.592 | 0.659 | 0.905 | 0.509 | 0.54 | 0.502 |  |  |  |  | 
10 | NCI-H2087 | 0.261 | 0.27 | 0.229 | 0.144 | 0.183 | 0.214 | 0.248 | 0.233 | 0.205 | 0.166 | 1.08 | 0.975 | 0.641 | 0.524 | 0.23 | 0.617 | 0.771 | 0.735 | 0.303 | 0.274
11 | LU99A | 0.77 | 0.809 | 0.64 | 0.448 | 0.211 | 0.283 | 0.277 | 0.262 | 0.247 | 0.241 | 0.489 | 0.533 | 0.23 | 0.297 | 0.108 | 0.344 | 0.358 | 0.284 | 0.12 | 0.16
12 | NCI-H1355 | 0.319 | 0.341 | 0.371 | 0.314 | 0.2 | 0.515 | 0.536 | 0.433 | 0.313 | 0.228 | 0.635 | 0.687 | 0.392 | 0.461 | 0.272 | 0.948 | 1.03 | 0.926 | 0.538 | 0.298
13 | HCC-78 | 0.624 | 0.702 | 0.639 | 0.645 | 0.423 | 0.375 | 0.488 | 0.988 | 0.264 | 0.184 | 0.396 | 0.494 | 0.329 | 0.256 | 0.242 | 0.31 | 0.294 | 0.297 | 0.229 | 0.267
14 | NCI-H1563 |  |  |  |  |  |  |  |  |  |  |  |  |  |  |  | 0.714 | 0.694 | 0.723 | 0.594 | 0.518
15 | HCC-15 | 0.591 | 0.639 | 0.543 | 0.336 | 0.276 | 0.386 | 0.348 | 0.367 | 0.23 | 0.122 | 0.766 | 0.894 | 0.779 | 0.275 | 0.178 | 0.731 | 0.725 | 0.627 | 0.326 | 0.242
16 | EKVX | 0.311 | 0.323 | 0.279 | 0.215 | 0.215 | 0.412 | 0.355 | 0.312 | 0.326 | 0.221 | 0.543 | 0.746 | 0.512 | 0.444 | 0.253 | 0.87 | 0.803 | 0.7 | 0.448 | 0.316
